The text below walks through data of article PMC7395821 (Antiviral Research, 2020).

Series [1] concerns eGFP-JEV. Nature of the series: eGFP-JEV-based HTS assay in Huh7 cells. Format: cell-based, Japanese encephalitis virus. The following applies: 96-well, cytotoxic and false positive drugs excluded.
In series [2] the test system is eGFP-JEV. Nature of the series: eGFP expression in eGFP-JEV infected BHK-21 cells. Format: cell-based, Japanese encephalitis virus. The following applies: BHK-21, eGFP-JEV MOI 0.1, two-fold dilutions, maximum 3 μM, 72 hpi.
A short description of series [3]: Cytotoxicity assay. The format is cell-based. The following applies: human, Huh7 cells.
The test system of series [4] is JEV genome RNA. Nature of the series: Real-time RT-PCR of viral RNA in WT-JEV infected Huh7 cells. The following applies: WT-JEV MOI 0.5, various dosages, qRT-PCR at 48 hpi. Format: cell-based, Japanese encephalitis virus. In general terms: Quantitative PCR measures a nucleic acid by following its amplification.
The subject of series [5] is WT-JEV. Nature of the series: Antiviral assay of WT-JEV in Huh7 cells, viral titer by plaque assay. The following applies: for EC50: Japanese encephalitis virus, Huh-7, read-out: EC50 (50% reduction of viral titer); for SI (selective index, ratio of CC50 to EC50): Huh7 cells.
For series [6], the system named is WT-JEV. Briefly: Time-of-addition assay. Format: cell-based, Japanese encephalitis virus. The following applies: Huh7, WT-JEV MOI 10, 5 μM, titers at 12 hpi.

Each structure is given as a SMILES string.

On to `OC(c1cc(C(F)(F)F)nc2c(C(F)(F)F)cccc12)C1CCCCN1` (centres unmarked) [Mefloquine], for which the “hit status after HTS and dose-dependent reconfirmation with eGFP-JEV” value (“hit status” for short) in series [1] is “potent inhibitor of JEV”.
For the molecule `C#C[C@@]1(O)[C@H](O)[C@@H](CO)O[C@H]1n1ccc2c(N)ncnc21` [NITD008], the “effect on eGFP expression” value in series [2] is listed as “dose-dependent inhibitory effects”.
Consider `CCCCCCCCCCCCCCCC[N+](C)(C)C` [cetrimonium bromide], for which the “hit status” value in series [1] was “newly discovered inhibitors of JEV”. Half-maximal cytotoxicity in series [3] (CC50 at 48 h) was put at 7.88 µM. Also, the “viral RNA copies” value in series [4] is “decreased in a dose-dependent manner”. For the same molecule, the EC50 in series [5] stood at 2.23 µM.
Take `CCCCCCCCCCCCCCCC[n+]1ccccc1` [cetylpyridinium chlorid, cetylpyridinium chloride]: the “hit status” value in series [1] is reported as “newly discovered inhibitors of JEV”. In addition, in series [4], the “viral RNA copies” value is on record as “decreased in a dose-dependent manner”.
Take `Oc1c(Cl)cc(Cl)c(Cl)c1Cc1c(O)c(Cl)cc(Cl)c1Cl` [hexachlorophene]: the “hit status” value in series [1] was “newly discovered inhibitors of JEV”. Moreover, the CC50 at 48 h in series [3] is 10 µM. Also, in series [5], the “SI (selective index, ratio of CC50 to EC50)” value is above 10 and the EC50 was found to be 0.421 µM.
In the case of `CCOC(=O)C1=C(C)NC(C)=C(C(=O)OCC)C1c1ccccc1/C=C/C(=O)OC(C)(C)C` [lacidipine], the “hit status” value in series [1] is recorded as “identified as hits”.
On to `NC(=O)N1CCC(CC(=O)N2CCC([C@H]3c4ncc(Br)cc4CCc4cc(Cl)cc(Br)c43)CC2)CC1` [lonafarnib], for which the “hit status” value in series [1] is “newly discovered inhibitors of JEV”. In series [3], this molecule displayed a cytotoxic concentration (CC50) at 48 h of 11.4 µM. The “viral RNA copies” value in series [4] is reported as “decreased in a dose-dependent manner”. In series [5], the “SI (selective index, ratio of CC50 to EC50)” value is listed as above 10 and the EC50 turned out to be 0.982 µM. Besides, in series [6], the “effect on virus propagation, compound added pre-infection (-1 to 0 h)” value is recorded as “no effect on virus propagation”; the “reduction in viral titer, compound added during viral infection (0-1 h)” value is recorded as 60%; the “viral titers, compound added post infection (1, 2, 4, 6, 8 h)” value is “significantly reduced”.
As for `COC(=O)C1=C(C)NC(C)=C(C(=O)OCCN2CCN(C(c3ccccc3)c3ccccc3)CC2)C1c1cccc([N+](=O)[O-])c1` (centres unmarked) [manidipine], the “hit status” value in series [1] is recorded as “identified as hits”.
As for `COc1c(C)c2c(c(O)c1C/C=C(\C)CCC(=O)O)C(=O)OC2` [mycophenolic acid], the “hit status” value in series [1] is “identified as hits”.
Take `O=[N+]([O-])c1ccc(O)c2ncccc12` [nitroxoline]: in series [1], the “hit status” value is “newly discovered inhibitors of JEV”. This molecule displayed a CC50 at 48 h in series [3] of 9.29 µM. For the same molecule, the “viral RNA copies” value in series [4] was “decreased in a dose-dependent manner”. In addition, the EC50 in series [5] stood at 2.48 µM.
As for `CC[C@@H]1/C=C(\C)C[C@H](C)C[C@H](OC)[C@H]2O[C@@](O)(C(=O)C(=O)N3CCCC[C@H]3C(=O)O[C@H](/C(C)=C/[C@@H]3CC[C@H](Cl)[C@H](OC)C3)[C@H](C)[C@@H](O)CC1=O)[C@H](C)C[C@@H]2OC` [pimecrolimus], the “hit status” value in series [1] is reported as “identified as hits”.
On to `CC(C)OC(=O)[C@H](C)N[P@](=O)(OC[C@H]1O[C@@H](n2ccc(=O)[nH]c2=O)[C@](C)(F)[C@@H]1O)Oc1ccccc1` [sofosbuvir], for which the “hit status” value in series [1] is “active”.

A word on the CC50: it is the concentration giving 50% cytotoxicity. Read a low CC50 as harm at low concentration. The term EC50 denotes the concentration needed to bring the measured effect to its halfway point.
